In patent US7105573B2, “Methods and compositions for the treatment of alopecia and other disorders of the pilosebaceous apparatus” (Orentreich Foundation for the Advancement of Science, Inc., priority 2000, dated 2006):
Where a name gives a salt, the structure may show the parent alone. Read-outs that look alike come from different tables or passages of the source. Values belong to the molecule of their own block, whether it stands above or below them.

Assays:
[1] = Method: For production of the test materials described herein, it is dissolved in water to twice the desired final concentration, then mixed with an equal volume of a solution of 4% butylene glycol in special denatured alcohol (SDA) for a final concentration of 50% SDA and 2% butylene glycol. […] Preferred concentrations are about 0.8% to about 2.0%.
(§1) If more neutral solutions are required, a penetration enhancing agent should be used to help deliver the drug to the dermis. […] Some, like dimethylsulfoxide (DMSO), are applied to the skin for 10–15 minutes prior to administration of the drug, while others, such as myristylamine oxide (MAO), SEPA and N-methyl pyrrolidone (NMP), can be added to the inventive composition in the appropriate concentration before applying to the skin.
It is important to remove the salts that are produced during this process. Therefore, the mixture is lyophilized, and the dry powder reconstituted in absolute ethanol.

[2] = Skin irritation of metformin base and salts in 50% SDA / 2% butylene glycol vehicle; assay type: in vivo; conditions: applied in 50% SDA, 2% butylene glycol in water
[3] = remark: listed apart in the source
Method: as §1

[4] = system: age-dependent hair loss in female ob/ob (obese) mice; test: Oral metformin hydrochloride and age-dependent hair loss in female ob/ob mice (Example 5); assay type: in vivo
Description: Twenty-one female C57BL/6J ob/ob mice were purchased from the Jackson Laboratory (Bar Harbour, Me.) at five weeks of age. […] Dosages were adjusted on a weekly basis to reflect changes observed in body weight. All animals were group housed and were allowed access to standard laboratory chow and water ad libitum. The progression of hair loss was documented throughout the study.

[5] = system: skin of the hairless mouse; test: Skin redness in hairless mouse, 11 days of treatment; assay type: in vivo; conditions: 50 μL, 2× per day
[6] = system: obese (ob/ob -Thieller background) mouse; conditions: 240 mg/kg/d in drinking water for 4 weeks; cited from earlier work
[7] = system: alopecic female ob/ob mice; test: Topical biguanide / metformin hair growth in obese (ob/ob) mouse model (Example 3); assay type: in vivo
Method: When pharmaceutically acceptable salts of biguanide were applied in reasonable concentrations (e.g., about 0.5% to about 10%) in a suitable topical vehicle (e.g., solution, tincture, gel, lotion, cream or ointment) containing a suitable penetration enhancing agent (e.g., surfactant, DMSO, N-methyl pyrrolidone), the growth of hair was stimulated in the obese (ob/ob) mouse model.
Two alopecic female ob/ob mice were treated with 0.8% topical metformin for three months beginning at 13 months of age. Applications of 50 ul were made twice per day (except weekends) to the alopecic (intrascapular) site.

[8] = system: hair loss in aged female obese (C57BL/6J-ob/ob) mice; test: Oral metformin and hair loss in aged female obese mice (Example 1); assay type: in vivo
Method: The objective of the experiments in this Example is to examine the effects of the biguanide […] metformin on hair loss in aged female obese (C57BL/6J-ob/ob) mice. The hypothesis tested is that metformin, when administered in these mice at a relatively young age, will increase insulin sensitivity, thereby preventing or slowing the progression of hair loss.
Animals: Female C57BL/6J Lep , ob/ob. (homozygous) and C57BL/6J Lep <ob/+> (heterozygous) mice are purchased from the Jackson Laboratory (Bar Harbor, Me.). All animals are housed at a density of 2–3 animals per cage and are maintained on a photoperiod of 12 h light: 12 h dark. Food and water are provided ad libitum.
The dosage is adjusted each week to reflect changes in body weight. Since the animals are group housed, the adjustment is made based on the mean weight of the treatment group, rather than on an animal-to-animal basis. The water is changed twice per week. Periodically the concentration of the metformin in the drinking water is verified by HPLC.
Experimental groups: The ob/+ animals are not entered into the study until two weeks after the ob/ob mice. […] Thus, once the ob/+ are 7 weeks of age, they are entered in the study.
Parameters monitored: Body weight, food and water consumption are monitored twice per week. Blood samples are collected from the orbital sinus of unanesthesized mice at the baseline and on a monthly basis for the duration of the study. These blood collections are designed to monitor serum glucose and insulin levels. C-peptide and insulin-like growth factor 1 (IGF-1) are also monitored periodically throughout the study. Blood samples for C-peptide analysis are collected following an overnight fast. Selected animals are photographed throughout the study to document the slowing or progression of hair loss.

[9] = system: hair loss in C57BL/6J Lep (ob) female mice; test: Oral troglitazone ob/ob female mice study (Example 6); assay type: in vivo; conditions: 350 days; 0.2% troglitazone in diet; control 100%
Method: This study involved oral administration of troglitazone (Rezulin®) to C57BL/6J Lep (ob) female mice.
Non-alopecic female ob/ob mice (7 weeks at start of study) are maintained on a photoperiod of 12 h light:12 h dark. Food (Purina 5001 Meal diet or Purina 5001 with 0.2% troglitazone) and water (acidified pH 2.5) are provided ad libitum.
Troglitazone (Rezulin®) is purchased from Parke-Davis (Morris Plains, NJ) in tablet form. The entire tablet (including the coat) is crushed in a blender prior to being incorporated into the diet. The amount of troglitazone added to the diet is adjusted to account for the weight of the tablet and the actual amount of the drug (400 mg/tablet) incorporated into the tablet.
The progression of hair loss is monitored by the investigator on a weekly to biweekly basis. The dorsal hair coat is photographed on a monthly basis to chart the onset and/or progression of alopecia.

SMILES: N=C(N)NC(=N)N [Biguanide, Biguanide (NH2C(═NH)NHC(═NH)NH2)]
long-term chemical stability in water [1]: limited long-term chemical stability in water | solubility in water [1]: water soluble

SMILES: CN(C)C(=N)N=C(N)N [Metformin HCl, Metformin hydrochloride]
irritation to the skin [2]: no irritation | penetration to the dermis as a function of pH [3]: improves as pH increases | absorbed through skin ([3]; 6 h): < 1% | percutaneous absorption (absorbed) ([3]; 6 h): <1% | incidence of hair loss ([4]; 300 days of age, controls about 40%): about 20% | incidence of hair loss ([4]; 370 days of age, excluding animals with only possible thinning of the hair coat, controls greater than 60%): 30% | onset of hair loss ([4]; female ob/ob mice, 240 mg/kg/d in acid water): delayed | incidence of spontaneous skin condition (may resemble acanthosis nigricans or migratory ichthyosis) ([4]; relative to control animals, the majority of which were affected): markedly less incidence

SMILES: CN(C)C(=N)NC(=N)N [Metformin base]
irritation to the skin [2]: significant irritation | absorbed through skin [3]: 75%–88%

SMILES: Cc1c(C)c2c(c(C)c1O)CCC(C)(COc1ccc(CC3SC(=O)NC3=O)cc1)O2 (stereo not shown) [troglitazone]
animals exhibiting some degree of hair loss [9]: 60%

Continued, in another order:

absorbed through skin [3]: < 1% | penetration on addition of SR-38 to the formula [3]: similarly improved
SMILES: CN(C)C(=N)N=C(N)N.O=C(O)c1cc2ccccc2c(Cc2c(O)c(C(=O)O)cc3ccccc23)c1O [Metformin pamoate, metformin pamoate]
irritation to the skin [2]: no irritation

redness on the skin [5]: only mild, temporary redness
SMILES: CCCCCCCCCCC1COC(=O)N1 (stereo not shown) [SR-38, 4-decyloxazolidin-2-one]

penetration of the applied metformin dose [3]: up to 20% | share of composition passing through the dermis [3]: over 90%
SMILES: CN(C)C(=N)N=C(N)N [metformin]
concentration of hepatocyte high and low affinity insulin receptors [6]: increase | hypoglycemic response to exogenous insulin [6]: did not alter | plasma insulin levels [6]: lowered | pigmentation at the alopecic site (onset of anagen) ([7]; 0.8% topical, 50 ul twice per day, after two months of treatment, two alopecic female ob/ob mice, 13 months of age at start): presence of pigmentation at the alopecic site | emergence of new hairs at the alopecic site ([7]; 0.8% topical, the week following two months of treatment): small hairs emerging from the skin | persistence of new hairs after withdrawal of treatment ([7]; observed for 6 weeks after the three-month treatment): new hairs remained intact | onset of hair loss ([8]; female ob/ob mice, 240 mg/kg/d in drinking water): delayed | hair loss in ob/+ mice ([8]; ob/+ (heterozygous) mice, 240 mg/kg p.o.): not observed | hair loss observed (% of animals affected) ([8]; ob/ob mice at 10 months of age (nearly 8 months of treatment), 240 mg/kg p.o., control 36%): 8%
